For data set [1] the following is noted: D7P vs daidzein, G7P vs genistein; produced with Bacillus subtilis BCRC 80517; cited from earlier work.
Data set [2] in a line: enzymatic activity of the PPS of interest and its protein mutant strains, genistein as substrate (G7P formation, HPLC). In kind it is biochemical. The note with it: Mg2+/ATP, 40° C., 10 minutes, pH 7.8, FIG. 30. How it is done:
After vibration-based mixing and centrifugation (13,000 rpm, 4° C., 5 minutes), the resulting supernatant was collected, diluted, and then analyzed by HPLC. The activity unit was defined as the amount of enzyme required to yield 1 nmol of product per unit time.
Once an enzyme was prepared, its protein concentration was diluted to 0.1 mg/mL. The enzyme and the enzyme reaction liquid were mixed at a ratio of 1:1 (v/v) and were allowed to react at 40° C. for 10 minutes, at the end of which methanol was added to dilute the protein tenfold and thereby terminate the reaction. The changes in concentration of genistein (GEN) and G7P (a product of GEN phosphorylation) were analyzed. The catalytic activity of the PPS of interest in the present invention and its mutant strains were subsequently calculated and compared, as shown in FIG. 30. […] The activity test results of other protein mutant strains show no total loss of activity but a trend of decrease in activity. […] However, while the aforesaid important catalytic sites in the active domain for stabilizing the phosphate group were inferred with relatively great certainty, the amino acids in Arm1 either had relatively poor prediction results or had important catalytic sites composed of non-polar amino acids (which when substituted with Ala produce little change in property) such that the combined use of site-directed mutagenesis and enzymatic activity determination lacked accuracy.

Consider three molecules from patent US20250257336A1, “ISOLATED OR ENGINEERED POLYPEPTIDES, MICROORGANISMS AS WELL AS METHOD FOR SYNTHESIZING POLYPHENOLIC PHYTOCHEMICALS PHOSPHATE DERIVATIVE USING THE POLYPEPTIDES OR MICROORGANISMS” (National Taiwan University, priority 2021, published 2025).

In the case of `O=c1c(-c2ccc(O)cc2)coc2cc(OP(=O)(O)O)ccc12` [D7P, daidzein 7-O-phosphate], in data set [1], the “water solubility relative to daidzein and genistein, respectively” value is on record as “a hundred thousand times”.

For `O=c1c(-c2ccc(O)cc2)coc2cc(OP(=O)(O)O)cc(O)c12` [G7P, genistein 7-O-phosphate], the “water solubility relative to daidzein and genistein, respectively” value in data set [1] was “a hundred thousand times”.

B1: K378A: site-directed mutant of the PPS of interest, Lys378 substituted with Ala (protein)
chain: MKKRGVSNMYSVLFRQAEESSQLAGAKGMNLIKLTKHGLPVPDGFIIQTNALARFMEDNQLQETSENVESGIISGTFSDELKDELTSSFYKLRESYRSVAVRSSSASEDLEGASFAGQYETYLNIKTEEEFLAKVKECWASFFSGRVSSYKKKMNNQIAEPLMGIVVQGLIDSEMSGVIFSRNPVTHDDRELLISASYGLGEAVVSGSVTPDTFIVNKSSFEIQKEIGAKEIYMESAAEGIAEKETSEDMRSRFCLTDEQVIELAEITKKTEDLYGYPVDIEFGIADHQIYLLQARPITTIDQDKKAAEEKRSFMITDTDMNDFWLNMESNIEGPVSPLFSSFIVPALEYGLKKSMQKFPIGVVVDEVKLYRGHIYSANQGGQQPPSEDCGKELFPILSEHMYDIINHTYLPFYRTLDQLAQTEHTAESALDAFQKLKAFYLTAYEEHFNIVFPQILLTNKLQAMYQDIQGESENAHFYEMLTGKMNKSLETDRCLWLFSMEVQENPNLLTIFENNKPEQLQEKLEQTDEGRHFLKNVHEFLQEYGWRSVKSHDLIEQIWVENPYFALANIQNYVRNGYHFDNEFQKTKEKREKLYNEFLENIEDPGLRTEFDRYYQWTLNSANIKDDHHFYIDAMLDAKARIFLLKIGELLAENGVIQDREDLWFLYDDEVEQALLHPVSLQEKAEKRRQIFHEYELAQAPAYLGTPTKEQLKAAEEIVGAVIEDEKNTENHIFGIAASSGIATGPVKIIRDANEFSQFAPGDVLVCKMTTPLWTSLFQDAKAIITDTGGILSHAAIIAREYGIPAVLGTRTATERLRDGDIITVDGSSGKITVVSRS
In the case of B1, the “catalytic activity (relative specific activity) compared with the PPS of interest” value in data set [2] is on record as “relatively significant decrease in activity”.
